pIC50: −log10 of the molar value. Where “and” joins values, the source holds several entries; their conditions need not be identical. Equal values may be shown once. Read-outs that look alike come from different tables or passages of the source.
Target: T1, plasma kallikrein (PKa) (Homo sapiens, UniProt P03952)
T1 construct: purchased R & D 2497-SE
Assay: Inhibitory activity against plasma kallikrein in vitro (fluorescence intensity enzyme assay, Pro-Phe-Arg-AMC substrate)
Format: biochemical
Settings: Pro-Phe-Arg-AMC substrate
Description: Test of the inhibitory activities of the compounds of the present invention against plasma kallikrein (PKa), KLK1 and FXIa in vitro.
The final concentrations of enzyme protein and Pro-Phe-Arg-AMC in the reaction mixture were 10 nM and 60 µM, respectively. The starting concentration of the positive reference substance Avoralstat was 100 nM, 3-fold dilution, 10 + 0 dose. 0.05 µL of compound in 100% DMSO was delivered to a 384-well plate by an acoustic liquid delivery technique (Echo665; nanoliter range). Compound duplex test. […] IC50 values and nonlinear regression curve fitting were obtained using GraphPad Prism software.

[1] = plasma kallikrein enzyme assay, read-out: PKa IC50

T1 sequence (P03952 391-638 limits assumed): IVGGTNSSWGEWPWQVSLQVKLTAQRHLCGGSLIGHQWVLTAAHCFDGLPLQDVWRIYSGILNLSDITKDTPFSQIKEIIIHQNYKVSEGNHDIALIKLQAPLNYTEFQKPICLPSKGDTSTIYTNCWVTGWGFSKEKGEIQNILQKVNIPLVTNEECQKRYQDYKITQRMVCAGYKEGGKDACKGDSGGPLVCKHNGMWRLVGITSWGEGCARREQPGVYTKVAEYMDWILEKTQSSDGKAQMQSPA
T1 sequence (P03952 20-390 partner limits assumed): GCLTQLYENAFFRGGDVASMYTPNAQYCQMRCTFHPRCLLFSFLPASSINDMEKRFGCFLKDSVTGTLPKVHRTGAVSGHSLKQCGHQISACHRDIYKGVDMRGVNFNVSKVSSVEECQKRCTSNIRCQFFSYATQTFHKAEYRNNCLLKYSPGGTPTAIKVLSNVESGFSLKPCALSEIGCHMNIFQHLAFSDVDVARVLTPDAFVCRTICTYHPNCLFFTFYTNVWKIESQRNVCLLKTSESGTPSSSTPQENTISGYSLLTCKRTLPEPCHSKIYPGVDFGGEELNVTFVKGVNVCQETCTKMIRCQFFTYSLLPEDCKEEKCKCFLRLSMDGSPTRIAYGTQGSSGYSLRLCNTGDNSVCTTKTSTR

Structure (SMILES) | pIC50 [1] | pIC50 (PKa IC50, plasma kallikrein enzyme assay)
COc1ccnc(CNC(=O)c2cn(Cc3ccc(Cn4ccccc4=O)cc3)nc2N2CC[C@@H](OC)C2)c1F [Compound 171] | 7.07 | –
CC[C@@H](COC)OCc1nn(Cc2ccc(Cn3ccccc3=O)cc2)cc1C(=O)NCc1nccc(OC)c1F [Compound 172] | 6.95 | –
COc1ccnc(CNC(=O)c2cn(Cc3ccc(Cn4ccccc4=O)cc3)nc2C2CN(C(=O)C(C)C)C2)c1F [Compound 173] | 7.93 | –
COc1ccnc(CNC(=O)c2cn(Cc3ccc(Cn4ccccc4=O)cc3)nc2CN2CC(C)(C)CC2=O)c1F [Compound 174] | 7.94 | –
CCn1c(CNC(=O)c2cn(Cc3ccc(Cn4ccccc4=O)cc3)nc2COC)cc2cnccc21 [Compound 176] | 7.74 | –
O=C(NCc1cc2ccncc2[nH]1)c1nc(Cc2ccc(Cn3ccccc3=O)cc2)ns1 [Compound 177] | 7.76 | –
N#Cc1cc(N2CC3C(C2)C3(F)F)ccc1Cn1cc(C(=O)NCc2cc3ccncc3[nH]2)c(C(F)(F)F)n1 (stereo not drawn) [Compound 178] | 8.11 | –
COc1ccc(F)c(CNC(=O)c2cn(Cc3ccc(Cn4cc(F)ccc4=O)cc3)nc2[C@H](C)C2COC2)c1F [Compound 179] | 7.82 | –
COc1ccc(F)c(CNC(=O)c2cn(Cc3ccc(Cn4cc(F)ccc4=O)cc3)nc2[C@@H](C)C2COC2)c1F [Compound 180] | 8.10 | –
COc1ccnc(CNC(=O)c2cn(Cc3ccc(CN4C(=O)C5(CC5)c5ccc(F)cc54)cc3)nc2C(F)(F)F)c1F [Compound 181] | 6.21 | –
COCc1nn(Cc2ccc(N3CCCCC3=O)cc2C#N)cc1C(=O)NCc1nccc(OC)c1F [Compound 182] | < 6.00 | –
COCc1nn(Cc2ccc(Oc3ccccc3)cc2)cc1C(=O)NCc1cc2ccncc2[nH]1 [Compound 185] | 7.07 | –
O=C(NCc1cc2ccncc2[nH]1)c1cn(Cc2ccc(Oc3ccccc3)cc2)nc1C(F)(F)F [Compound 186] | 6.15 | –
Nc1ncc2cc(CNC(=O)c3cnn(Cc4ccc(Cn5ccccc5=O)cc4)c3)ccn12 [Compound 187] | 7.97 | –
COCc1nn(Cc2ccc(N3CC4C(C3)C4(F)F)cc2C#N)cc1C(=O)NCc1c(C)cn2cncc2c1C (stereo not drawn) [Compound 188] | 8.56 | –
COc1ccc(C#N)c(CNC(=O)c2cnn(Cc3ccc(Cn4ccccc4=O)cc3)c2)c1C [Compound 189] | 6.74 | –
COCc1nn(Cc2ccc(Cn3ccccc3=O)cc2)cc1C(=O)NCc1c(C#N)ccc(OC)c1C [Compound 190] | < 6.00 | –
COc1ccnc(CNC(=O)c2cn(Cc3ccc(Cn4ccccc4=O)cc3)nc2COCCN(C)C)c1F [Compound 191] | 7.79 | –
COCCn1c(CNC(=O)c2cn(Cc3ccc(Cn4ccccc4=O)cc3)nc2COC)cc2cnccc21 [Compound 192] | < 6.00 | –
CCc1cc(N2CC3C(C2)C3(F)F)ccc1Cn1cc(C(=O)NCc2cc3cnccc3[nH]2)c(COC)n1 (stereo not drawn) [Compound 195] | 6.72 | –
Cn1c(CNC(=O)c2cn(Cc3ccc(Cn4ccccc4=O)cc3)nc2C(F)(F)F)cc2cnccc21 [Compound 196] | 7.82 | –
O=C(NCc1ccc2ccncc2c1)c1cnn(Cc2ccc(Cn3ccccc3=O)cc2)c1 [Compound 197] | 6.79 | –
COc1ccnc(CNC(=O)c2cn(Cc3ccc(Cn4c(C(F)(F)F)nccc4=O)cc3)nc2C(F)(F)F)c1F [Compound 198] | < 6.00 | –
CCc1cc(N2CC3C(C2)C3(F)F)ccc1Cn1cc(C(=O)NCc2cc3ccncc3[nH]2)c(C(F)(F)F)n1 (stereo not drawn) [Compound 199] | 7.70 | –
Cc1cn2cncc2c(C)c1CNC(=O)c1cn(Cc2ccc(N3CC4C(C3)C4(F)F)cc2C#N)nc1C(F)(F)F (stereo not drawn) [Compound 200] | 8.25 | –
COc1ccnc(CNC(=O)c2cn(Cc3ccc(Cn4ccccc4=O)cc3)nc2CN2CCC(OC)CC2)c1F [Compound 201] | 7.97 | –
COc1ccc(C#N)c(CNC(=O)c2cn(Cc3ccc(Cn4ccccc4=O)cc3)nc2C(F)(F)F)c1C [Compound 202] | < 6.00 | –
COCC1(F)CN(Cc2nn(Cc3ccc(Cn4ccccc4=O)cc3)cc2C(=O)NCc2nccc(OC)c2F)C1 [Compound 205, 3-((3-fluoro-3-(methoxymethyl)azetidin-1-yl)methyl)-N-(3-fluoro-4-methoxypyridin-2-yl)methyl] | – | 8.05
Cc1cc2ncnn2c(C)c1CNC(=O)c1cn(Cc2ccc(Cn3ccccc3=O)cc2)nc1C(F)(F)F [Compound 206] | 6.50 | –

Further lines, results first:

pIC50 [1] | pIC50 (PKa IC50, plasma kallikrein enzyme assay) | Structure (SMILES)
6.78 | – | O=C(NCc1ccc2cnccc2c1)c1cnn(Cc2ccc(Cn3ccccc3=O)cc2)c1 [Compound 207]
8.10 | – | COc1ccnc(CNC(=O)c2cn(Cc3ccc(Cn4ccccc4=O)cc3)nc2C2CC(OC)C2)c1F (stereo not drawn) [Compound 208]
7.97 and < 7.00 | – | COc1ccc(F)c(CNC(=O)c2cn(Cc3ccc(Cn4cc(F)ccc4=O)cc3)nc2C2CC(F)(F)C2)c1F [Compound 209, N-(2,6-difluoro-3-methoxybenzyl)-3-(3,3-difluorocyclobutyl)-1-(4-((5-fluoro-2-oxopyridin-1(2H)yl)methyl)benzyl)-1H-pyrazole-4-carboxamide]
8.22 | – | COc1ccnc(CNC(=O)c2cn(Cc3ccc(Cn4ccccc4=O)cc3)nc2C2CC(C)(OC)C2)c1F (stereo not drawn) [Compound 210]
8.08 | – | COc1ccc(F)c(CNC(=O)c2cn(Cc3ccc(Cn4ccccc4=O)cc3)nc2C2CC(C)(OC)C2)c1F (stereo not drawn) [Compound 211]
6.10 | – | Nc1nc2ccc(CNC(=O)c3cnn(Cc4ccc(Cn5ccccc5=O)cc4)c3)cc2s1 [Compound 215]
8.58 | – | COc1ccnc(CNC(=O)c2cn(Cc3ccc(Cn4ccccc4=O)cc3)nc2C2CC2(F)F)c1F (stereo not drawn) [Compound 216]
8.30 | – | COc1ccc(F)c(CNC(=O)c2cn(Cc3ccc(Cn4cc(F)ccc4=O)cc3)nc2COCCN(C)C)c1F [Compound 219]
7.92 | – | COCC1(F)CN(Cc2nn(Cc3ccc(Cn4cc(F)ccc4=O)cc3)cc2C(=O)NCc2c(F)ccc(OC)c2F)C1 [Compound 220]
7.92 | – | COCC1(F)CN(c2nn(Cc3ccc(Cn4ccccc4=O)cc3)cc2C(=O)NCc2nccc(OC)c2F)C1 [Compound 223]
7.55 | – | COc1ccnc(CNC(=O)c2cn(Cc3ccc(Cn4ccccc4=O)cc3)nc2N2CCOCC2)c1F [Compound 224]
7.96 | – | COc1ccc(F)c(CNC(=O)c2cn(Cc3ccc(Cn4cc(F)ccc4=O)cc3)nc2OCCF)c1F [Compound 226]
8.04 | – | COc1ccc(F)c(CNC(=O)c2cn(Cc3ccc(Cn4cc(F)ccc4=O)c(F)c3)nc2C2CC(OC)C2)c1F (stereo not drawn) [Compound 227]
7.79 | – | COc1ccc(F)c(CNC(=O)c2cn(Cc3ccc(Cn4cc(F)ccc4=O)c(F)c3)nc2C2CC(F)(F)C2)c1F [Compound 228]
7.64 | – | COc1ccnc(CNC(=O)c2cn(Cc3ccc(Cn4ccccc4=O)cc3)nc2OCc2ccccn2)c1F [Compound 229]
8.01 | – | COc1ccc(F)c(CNC(=O)c2cn(Cc3ccc(Cn4ccccc4=O)cc3)nc2COCCN2CCCC2)c1F [Compound 230]
8.44 | – | COc1ccc(F)c(CNC(=O)c2cn(Cc3ccc(Cn4cc(F)ccc4=O)cc3)nc2COCCN2CCCC2)c1F [Compound 231]

pIC50 [1] | pIC50 (PKa IC50, plasma kallikrein enzyme assay) | Structure (SMILES)
8.15 | – | COc1ccnc(CNC(=O)c2cn(Cc3ccc(Cn4ccccc4=O)cc3)nc2N2CC(C)(OC)C2)c1F [Compound 232]
8.01 | – | COc1ccc(F)c(CNC(=O)c2cn(Cc3ccc(Cn4ccccc4=O)cc3)nc2N2CC(F)(F)C2)c1F [Compound 233]
8.30 | – | COc1ccc(F)c(CNC(=O)c2cn(Cc3ccc(Cn4cc(F)ccc4=O)cc3)nc2COCC2(F)COC2)c1F [Compound 234]
8.48 | – | COc1ccnc(CNC(=O)c2cn(Cc3ccc(Cn4ccccc4=O)cc3)nc2COCC2(F)COC2)c1F [Compound 235, N-((3-fluoro-4-methoxypyridin-2-yl)methyl)-3-((3-fluorooxetan-3-yl)methoxy)methyl]
7.78 | – | COc1ccc(F)c(CNC(=O)c2cn(Cc3ccc(Cn4cc(F)ccc4=O)cc3)nc2COC2(C)COC2)c1F [Compound 236]
8.56 | – | COc1ccc(F)c(COC(=O)c2cn(Cc3ccc(Cn4cc(F)ccc4=O)cc3)nc2NC2(C)COC2)c1F [Compound 237]
8.04 | – | COc1ccnc(CNC(=O)c2cn(Cc3ccc(Cn4ccccc4=O)cc3)nc2CN2CC3(COC3)C2)c1F [Compound 238]
8.16 | – | CCN(CC)CCOCc1nn(Cc2ccc(Cn3ccccc3=O)cc2)cc1C(=O)NCc1nccc(OC)c1F [Compound 239]
7.90 | – | COc1ccc(F)c(CNC(=O)c2cn(Cc3ccc(Cn4ccccc4=O)cc3)nc2COC2CCC2)c1F [Compound 240]
7.84 | – | N=C(N)c1ccc(CNC(=O)c2cnn(Cc3ccc(CC4CC4)cc3)c2)nc1 [Compound 243]
8.55 | – | COc1ccc(F)c(CNC(=O)c2cn(Cc3ccc(Cn4ccccc4=O)cc3)nc2CN2C(=O)CCC2=O)c1F [Compound 248]
8.10 | – | COc1ccnc(CNC(=O)c2cn(Cc3ccc(Cn4ccccc4=O)cc3)nc2COC2COC2)c1F [Compound 249]
7.20 | – | COc1ccc(F)c(CNC(=O)c2cn(Cc3ccc(Cn4ccccc4=O)cc3)nc2C2(OC)CCC2)c1F [Compound 258]
8.11 | – | CNc1ccnc(CNC(=O)c2cn(Cc3ccc(Cn4ccccc4=O)cc3)nc2C2COC2)c1F [Compound 260, N-((3-fluoro-4-(methylamino)pyridin-2-yl)methyl)-3-(oxetan-3-yl)-1-(4-((2-oxopyridin-1(2H)-yl)methyl)benzyl)-1H-pyrazole-4-carboxamide]
8.16 | – | CNc1ccnc(CNC(=O)c2cn(Cc3ccc(Cn4ccccc4=O)cc3)nc2N2CC(F)(F)C2)c1F [Compound 265]
7.16 | – | Nc1ccnc(CNC(=O)c2cn(Cc3ccc(Cn4ccccc4=O)cc3)nc2N2CC(F)(F)C2)c1F [Compound 268]
< 6.00 | – | CC(C)CNc1ccnc(CNC(=O)c2cn(Cc3ccc(Cn4ccccc4=O)cc3)nc2C2COC2)c1F [Compound 269]

Reference: EP4737450A1 (Longwood Pharmaceuticals (Hangzhou) Co., Ltd, priority 2023, dated 2025)
